Laboratory results as given in patent US20240351960A1, “METHOD FOR PRODUCING […] THIO[…], AND USE OF COMPOUND IN NITROGEN FERTILIZER FORMULATIONS” (NOVAEM BBTRADE, priority 2021, published 2024).
Where “and” joins values, the source holds several entries; their conditions need not be identical. Equal values may be shown once.

Assays:
[1] = tested on: urease; test: Volatilization of urea from garden soil treated with urea containing PTA (Example 2); settings: garden soil 1500 g, urea containing 0.1 wt % PTA (as third precipitate, at least 75% PTA), after four days, mass percent; control without PTA 15.4%
Method: Three 1500 g samples of garden soil were prepared, placed in airtight containers. One sample was treated with urea containing no PTA, and two samples with urea containing 0.1 wt % PTA. The amount of urea was the same for each sample. The PTA was the “third precipitate” within the meaning of the object of the present invention. It contained at least 75% by weight of PTA; the indication “0.1% by mass of PTA” refers here to the total mass of the third precipitate and not to the pure PTA which it contains.
Each soil sample was treated with 250 g of water before depositing the urea samples treated or not with PTA on the surface. The volatilization of urea was determined after four days, expressed in mass percent. For this, a current of air was conveyed above each sample using a membrane pump, and this air was led through a citric acid solution which fixes the ammonia by transforming it into ammonium. The citric acid solution was then titrated with a sodium hydroxide solution to calculate the amount of ammonia that had reacted with the citric acid solution. From the quantity of ammonia, the quantity of urea having generated it is calculated.
In this test, the earth was taken from a single location, and the containers were stored side by side in the same room. It can therefore be assumed that each batch was exposed to the same experimental conditions.

[2] = tested on: urease; test: Rate of urea volatilization from agricultural earth treated with urea fertilizer containing PTA (Examples 4 and 5); settings: after four days; for rate of urea volatilization: control 45.81%
Method: Three identical samples of agricultural earth were supplied. A first sample of this earth was treated with a urea fertilizer containing 0.2% by weight of the third precipitate. This precipitate contained at least 75% by weight of PTA; the indication “0.2% by mass of PTA” refers here to the total mass of the third precipitate and not to the pure PTA which it contains. A second sample of this earth was treated with the same quantity of the same fertilizer comprising 0.2% by mass of TPTA (in the sense indicated above for PTA). The third earth sample was treated with the same amount of the same fertilizer containing no urease inhibitor. The rate of urea volatilization was determined after four days of exposure:
Following the test described in Example 4, the dose effect of the PTA was determined by treating identical agricultural earth samples with a urea fertilizer comprising 0.05%, 0.1% and 0.2% by mass of PTA (in the sense indicated above: quantity of third precipitate).

## NP(N)(N)=O [PTA, phosphoryl triamide]
[1]
  volatilization of urea: 1.5% and 3.05%
[2]; 0.2% by mass of PTA, versus control
  volatilization of urea is reduced by: approximately 75%
[2]; urea fertilizer with 0.05% by mass of PTA (quantity of third precipitate)
  rate of urea volatilization: 34.19%
[2]; urea fertilizer with 0.1% by mass of PTA (quantity of third precipitate)
  rate of urea volatilization: 29.56%
[2]; urea fertilizer, printed as 0.02% PTA (quantity of third precipitate)
  rate of urea volatilization: 11.55%
